Data: US20250034159A1, “INHIBITORS OF EPIDERMAL GROWTH FACTOR RECEPTOR” (ORIC Pharmaceuticals, Inc., priority 2021, published 2025)

Columns and labels:
[1] = system: BaF3_EGFR d19/CS cells; assay: Biological Activity Assay D: BaF3 cell proliferation assay, EGFR exon 19 deletion/C797S (BaF3 d19/CS); format: cell-based; conditions: Ba/F3 EGFR; BaF3_EGFR d19/CS cells, ~72 hours, CellTiter-Glo; read-out: BaF3 d19/CS IC50
[2] = system: BaF3_EGFR LR/CS cells; assay: Biological Activity Assay D: BaF3 cell proliferation assay, EGFR L858R/C797S mutant (BaF3 LR/CS); format: cell-based; conditions: Ba/F3 EGFR; BaF3_EGFR LR/CS cells, ~72 hours, CellTiter-Glo; read-out: BaF3 LR/CS IC50
[3] = target: recombinant human EGFR L858R/C797S double mutant protein (Homo sapiens (Human), UniProt P00533, C797S/L858R); assay: Biological Activity Assay B: biochemical assay against EGFR L858R/C797S protein (EGFR LR/CS)
Chain of recombinant human EGFR L858R/C797S double mutant protein (P00533 25-1210 C797S/L858R): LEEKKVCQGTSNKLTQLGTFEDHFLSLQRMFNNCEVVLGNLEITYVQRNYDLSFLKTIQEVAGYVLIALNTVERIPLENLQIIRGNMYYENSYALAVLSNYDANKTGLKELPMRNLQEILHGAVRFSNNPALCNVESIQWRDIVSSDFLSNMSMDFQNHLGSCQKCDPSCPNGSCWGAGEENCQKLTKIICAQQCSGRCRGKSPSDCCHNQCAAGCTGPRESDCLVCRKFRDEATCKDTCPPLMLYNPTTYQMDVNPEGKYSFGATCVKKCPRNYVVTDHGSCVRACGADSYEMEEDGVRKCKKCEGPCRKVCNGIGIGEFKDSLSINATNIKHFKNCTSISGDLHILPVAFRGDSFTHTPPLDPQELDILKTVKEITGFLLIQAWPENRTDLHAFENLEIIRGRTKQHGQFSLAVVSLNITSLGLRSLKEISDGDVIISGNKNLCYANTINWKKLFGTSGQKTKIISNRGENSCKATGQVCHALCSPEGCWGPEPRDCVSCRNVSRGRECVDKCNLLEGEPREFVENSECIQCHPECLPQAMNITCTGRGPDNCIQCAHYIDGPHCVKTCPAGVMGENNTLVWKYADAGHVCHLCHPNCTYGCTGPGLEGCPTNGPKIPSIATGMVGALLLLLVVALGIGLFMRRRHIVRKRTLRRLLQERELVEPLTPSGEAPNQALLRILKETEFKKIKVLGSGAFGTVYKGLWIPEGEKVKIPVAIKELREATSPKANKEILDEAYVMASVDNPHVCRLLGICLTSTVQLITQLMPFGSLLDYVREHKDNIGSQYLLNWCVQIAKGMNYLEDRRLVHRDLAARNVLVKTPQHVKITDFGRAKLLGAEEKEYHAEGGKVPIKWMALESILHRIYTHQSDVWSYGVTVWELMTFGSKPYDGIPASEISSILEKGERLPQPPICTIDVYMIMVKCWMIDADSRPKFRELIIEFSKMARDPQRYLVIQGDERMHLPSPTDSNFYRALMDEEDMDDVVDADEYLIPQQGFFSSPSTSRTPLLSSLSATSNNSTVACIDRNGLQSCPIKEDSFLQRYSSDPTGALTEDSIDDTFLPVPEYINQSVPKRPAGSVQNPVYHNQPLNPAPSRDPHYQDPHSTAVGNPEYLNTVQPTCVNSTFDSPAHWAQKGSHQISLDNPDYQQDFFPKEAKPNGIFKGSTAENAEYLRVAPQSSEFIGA
Outline: (§1)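 Compounds were tested as 16-point serial dilutions (final DMSO 2.5%) with a Phosphosens peptide sensor/ATP working solution (40 uM/4 mM). The signal was read kinetically over 90 cycles at 120 s intervals. IC50s came from 4-parameter fits of per-well slopes.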

[4] = system: Ba/F3_EGFR WT cells; assay: Biological Activity Assay D: BaF3 cell proliferation assay, EGFR wild-type (BaF3 WT); format: cell-based; conditions: Ba/F3 EGFR; Ba/F3_EGFR WT cells, ~72 hours, CellTiter-Glo; read-out: BaF3 WT IC50
[5] = target: recombinant human EGFR exon 19 deletion/C797S double mutant protein (Homo sapiens (Human), UniProt P00533, C797S/DEL746-750); assay: Biological Activity Assay C: biochemical assay against EGFR exon 19 deletion/C797S protein (EGFR d19/CS)
Chain of recombinant human EGFR exon 19 deletion/C797S double mutant protein (P00533 other isoform, or with tags, fused parts or gaps C797S/del 1-668/del 746-750 limits assumed): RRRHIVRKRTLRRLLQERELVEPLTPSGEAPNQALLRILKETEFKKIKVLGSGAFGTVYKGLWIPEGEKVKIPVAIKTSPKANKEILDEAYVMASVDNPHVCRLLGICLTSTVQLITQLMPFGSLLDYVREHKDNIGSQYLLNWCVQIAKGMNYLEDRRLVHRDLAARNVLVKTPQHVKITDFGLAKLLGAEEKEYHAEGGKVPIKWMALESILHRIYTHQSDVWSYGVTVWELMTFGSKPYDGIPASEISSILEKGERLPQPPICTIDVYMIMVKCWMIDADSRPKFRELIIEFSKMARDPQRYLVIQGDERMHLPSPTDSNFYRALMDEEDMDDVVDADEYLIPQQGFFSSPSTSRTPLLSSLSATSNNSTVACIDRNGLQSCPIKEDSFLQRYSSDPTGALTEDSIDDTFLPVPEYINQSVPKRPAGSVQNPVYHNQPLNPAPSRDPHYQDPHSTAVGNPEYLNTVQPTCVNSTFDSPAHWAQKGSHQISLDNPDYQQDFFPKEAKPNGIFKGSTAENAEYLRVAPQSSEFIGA
Outline: as §1

IC50 [1] [nM] | IC50 [2] [nM] | IC50 [3] [nM] | IC50 [4] [nM] | IC50 [5] [nM] | SMILES
68.6 | 40.2 | 0.452 | 2340 | 0.378 | Fc1ccc(-c2nn(CC3CCO3)cc2-c2ncnc3oc(-c4ccccc4)cc23)cc1 (stereo not shown) [Example 69, 4-{3-(4-Fluorophenyl)-1-[(oxetan-2-yl)methyl]-1H-pyrazol-4-yl}-6-phenylfuro[2,3-d]pyrimidine]
62.9 | 99.1 | 0.779 | 1460 | 1.1 | Fc1ccc(-c2nn(CCC3COC3)cc2-c2ncnc3oc(-c4ccccc4)cc23)cc1 [Example 64, 4-{3-(4-Fluorophenyl)-1-[2-(oxetan-3-yl)ethyl]-1H-pyrazol-4-yl}-6-phenylfuro[2,3-d]pyrimidine]
50.5 | 38.3 | 0.56 | 1020 | 0.25 | NC(=O)CCn1cc(-c2ncnc3oc(-c4ccccc4)cc23)c(-c2ccc(F)cc2)n1 [Example 118, 3-[3-(4-Fluorophenyl)-4-(6-phenylfuro[2,3-d]pyrimidin-4-yl)-1H-pyrazol-1-yl]propanamide]
98 | 174 | 1.67 | 10600 | 0.46 | O=S1(=O)CC(n2nc(-c3ccc(F)cc3)c(-c3ncnc4oc(-c5ccccc5)cc34)n2)C1 [Example 104, 3-[4-(4-Fluorophenyl)-5-(6-phenylfuro[2,3-d]pyrimidin-4-yl)-2H-1,2,3-triazol-2-yl]-1λ6-thietane-1,1-dione]
238 | 301 | 1.22 | 3740 | 0.64 | CC(C)(O)Cn1nc(-c2ccc(F)cc2)c(-c2ncnc3oc(-c4ccccc4)cc23)n1 [Example 88, 1-[4-(4-fluorophenyl)-5-(6-phenylfuro[2,3-d]pyrimidin-4-yl)-2H-1,2,3-triazol-2-yl]-2-methylpropan-2-ol]
111 | 116 | 2.64 | 10200 | 1.99 | CS(=O)(=O)Cn1cc(-c2ncnc3oc(-c4ccccc4)cc23)c(-c2ccc(F)cc2)n1 [Example 79, 4-{3-(4-fluorophenyl)-1-[(methanesulfonyl)methyl]-1H-pyrazol-4-yl}-6-phenylfuro[2,3-d]pyrimidine]
39.9 | 23.8 | 0.37 | 1280 | 0.23 | Fc1ccc(-c2nn([C@H]3CCOC3)cc2-c2ncnc3oc(-c4ccccc4)cc23)cc1 (single isomer, unassigned) [Example 91]
5.79 | 6.91 | 0.521 | 594 | 0.408 | OCCCn1cc(-c2ncnc3oc(-c4ccccc4)cc23)c(-c2ccc(F)cc2)n1 [Example 11, 3-[3-(4-Fluorophenyl)-4-(6-phenylfuro[2,3-d]pyrimidin-4-yl)-1H-pyrazol-1-yl]propan-1-ol]
114 | 53.7 | 0.45 | 1140 | 0.41 | NS(=O)(=O)CCn1cc(-c2ncnc3oc(-c4ccccc4)cc23)c(-c2ccc(F)cc2)n1 [Example 111, 2-[3-(4-Fluorophenyl)-4-(6-phenylfuro[2,3-d]pyrimidin-4-yl)-1H-pyrazol-1-yl]ethane-1-sulfonamide]
429 | 390 | 6.25 | 7380 | 6.67 | CC(=O)N1CC(n2cc(-c3ncnc4oc(-c5ccccc5)cc34)c(-c3ccc(F)cc3)n2)C1 [Example 86, 1-{3-[3-(4-fluorophenyl)-4-(6-phenylfuro[2,3-d]pyrimidin-4-yl)-1H-pyrazol-1-yl]azetidin-1-yl}ethan-1-one]
150 | 131 | 1.01 | 5920 | 1.49 | COC1(Cn2cc(-c3ncnc4oc(-c5ccccc5)cc34)c(-c3ccc(F)cc3)n2)COC1 [Example 75, 4-{3-(4-fluorophenyl)-1-[(3-methoxyoxetan-3-yl)methyl]-1H-pyrazol-4-yl}-6-phenylfuro[2,3-d]pyrimidine]
157 | 153 | 8.44 | 1740 | 3.46 | OCCCn1cc(-c2ccnc3[nH]c(-c4nnco4)cc23)c(-c2ccc(F)cc2)n1 [Example 17, 3-{3-(4-Fluorophenyl)-4-[2-(1,3,4-oxadiazol-2-yl)-1H-pyrrolo[2,3-b]pyridin-4-yl]-1H-pyrazol-1-yl}propan-1-ol]
118 | 88.3 | 0.526 | 2270 | 0.419 | Fc1ccc(-c2n[nH]cc2-c2ncnc3oc(-c4ccccc4)cc23)cc1 [Example 60, 4-[3-(4-Fluorophenyl)-1H-pyrazol-4-yl]-6-phenylfuro[2,3-d]pyrimidine]
319 | 407 | 2.76 | 13300 | 4.23 | O=S1(=O)CCC[C@H](n2cc(-c3ncnc4oc(-c5ccccc5)cc34)c(-c3ccc(F)cc3)n2)C1 (single isomer, unassigned) [Example 100]
315 | 256 | 1.27 | 2190 | 1.49 | COC1(CCn2cc(-c3ncnc4oc(-c5ccccc5)cc34)c(-c3ccc(F)cc3)n2)COC1 [Example 113, 4-{3-(4-fluorophenyl)-1-[2-(3-methoxyoxetan-3-yl)ethyl]-1H-pyrazol-4-yl}-6-phenylfuro[2,3-d]pyrimidine]
24.2 | 26.1 | 0.65 | 1340 | 0.36 | O=S1(=O)CC[C@@H](n2cc(-c3ncnc4oc(-c5ccccc5)cc34)c(-c3ccc(F)cc3)n2)C1 (single isomer, unassigned) [Example 72]
464 | 208 | 8.65 | 11700 | 3.12 | OCCn1nc(-c2ccc(F)cc2)c(-c2ncnc3[nH]c(-c4ccccc4)nc23)n1 [Example 27, 2-[4-(4-Fluorophenyl)-5-(8-phenyl-9H-purin-6-yl)-2H-1,2,3-triazol-2-yl]ethan-1-ol]
486 | 562 | 4.06 | 6410 | 4.22 | Fc1ccc(-c2nn(CCCC(F)F)cc2-c2ncnc3oc(-c4ccccc4)nc23)cc1 [Example 26, 7-[1-(4,4-difluorobutyl)-3-(4-fluorophenyl)-1H-pyrazol-4-yl]-2-phenyl[1,3]oxazolo[5,4-d]pyrimidine]
339 | 209 | 1.13 | 20000 | 1.35 | CNC(=O)CCc1nc(-c2ccc(F)cc2)c(-c2ncnc3oc(-c4ccccc4)cc23)o1 [Example 36, 3-[4-(4-fluorophenyl)-5-(6-phenylfuro[2,3-d]pyrimidin-4-yl)-1,3-oxazol-2-yl]-N-methylpropanamide]

SMILES | IC50 [1] [nM] | IC50 [2] [nM] | IC50 [3] [nM] | IC50 [4] [nM] | IC50 [5] [nM]
CN1CC=C(c2cc3c(-c4cn(CCCO)nc4-c4ccc(F)cc4)ccnc3[nH]2)CC1 [Example 14, 3-{3-(4-Fluorophenyl)-4-[2-(1-methyl-1,2,3,6-tetrahydropyridin-4-yl)-1H-pyrrolo[2,3-b]pyridin-4-yl]-1H-pyrazol-1-yl}propan-1-ol] | 113 | 120 | 7.58 | 1350 | 3.3
